From ChEMBL document CHEMBL1201862, “PubChem BioAssay data set” (2004)
Activity calls are given as the source filed them.

Experiments:
[1] = molecular target: Cytochrome P450 2C9 (Homo sapiens, UniProt P11712)
[2] = molecular target: Cytochrome P450 2C19 (Homo sapiens, UniProt P33261); test: Cytochrome panel assay with activity outcomes. Panel member name: p450-cyp2c19 Compounds with AC50 equal or less than 10 uM are considered active; assay type: functional; settings: read-out: AC50
[3] = molecular target: T1, Corticotropin-releasing factor receptor 2/Corticotropin-releasing factor-binding protein (Homo sapiens, UniProt P24387+Q13324); test: Dose Response confirmation of uHTS hits for small molecule antagonists of the CRF-binding protein and CRF-R2 receptor complex.; assay type: functional; settings: read-out: IC50_Mean
T1 sequence (Q13324 whole entry): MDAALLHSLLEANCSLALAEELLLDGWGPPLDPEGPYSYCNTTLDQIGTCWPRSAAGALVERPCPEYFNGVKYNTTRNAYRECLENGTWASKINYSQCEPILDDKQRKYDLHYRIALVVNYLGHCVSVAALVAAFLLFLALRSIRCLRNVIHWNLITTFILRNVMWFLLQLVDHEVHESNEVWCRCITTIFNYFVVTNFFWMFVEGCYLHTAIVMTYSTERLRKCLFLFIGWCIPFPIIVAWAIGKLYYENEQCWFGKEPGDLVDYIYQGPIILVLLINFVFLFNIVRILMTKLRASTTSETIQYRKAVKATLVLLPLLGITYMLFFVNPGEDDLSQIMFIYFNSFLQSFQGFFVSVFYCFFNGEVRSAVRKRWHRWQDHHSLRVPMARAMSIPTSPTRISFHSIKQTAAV
T1 sequence (P24387 whole entry): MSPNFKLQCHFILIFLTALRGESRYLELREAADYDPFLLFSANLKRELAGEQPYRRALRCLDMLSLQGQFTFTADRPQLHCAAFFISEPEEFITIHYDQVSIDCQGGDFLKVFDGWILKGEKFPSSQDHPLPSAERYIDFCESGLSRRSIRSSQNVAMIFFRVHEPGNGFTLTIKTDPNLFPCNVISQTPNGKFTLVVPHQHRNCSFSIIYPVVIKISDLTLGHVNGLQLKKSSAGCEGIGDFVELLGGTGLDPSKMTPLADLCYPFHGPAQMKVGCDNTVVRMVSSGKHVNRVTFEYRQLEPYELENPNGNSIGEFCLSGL

[4] = molecular target: T1, Corticotropin-releasing factor receptor 2/Corticotropin-releasing factor-binding protein; test: activators of CRF receptor 2 with binding protein – uHTS hits, confirmation (AID 602473); assay type: functional; settings: read-out: EC50_Mean
[5] = luciferase reporter signal suppression in cells – H4 neuroglioma cells, luminescence, dose response (AID 1990); assay type: functional, cell-based
[6] = alpha-synuclein stem-loop luciferase translation blockers – H4 neuroglioma cells, luminescence, confirmation (AID 1988); assay type: functional, cell-based
[7] = Luminescence Cell-Based Dose Response HTS to Identify Inhibitors of 5'UTR Stem-Loop Driven Prion Protein mRNA Translation in H4 Neuroglioblastoma Cells. [Related pubchem assays: 1827 (Project Summary), 1813 (Primary HTS)]; assay type: functional
[8] = molecular target: T2, Heat shock factor protein 1 (Mus musculus, UniProt P38532); test: decrease of HSF1-responsive luciferase luminescence – cell-based, NIH3T3, dose retest, confirmation (AID 2382); assay type: functional;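 also: NIH3T3 fibroblasts with HSF1-driven luciferase reporter stressed by proteasome inhibitor MG132; luminescence from HSF1-driven luciferase expression after 8 hours of MG132 stress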
T2 sequence (P38532 whole entry): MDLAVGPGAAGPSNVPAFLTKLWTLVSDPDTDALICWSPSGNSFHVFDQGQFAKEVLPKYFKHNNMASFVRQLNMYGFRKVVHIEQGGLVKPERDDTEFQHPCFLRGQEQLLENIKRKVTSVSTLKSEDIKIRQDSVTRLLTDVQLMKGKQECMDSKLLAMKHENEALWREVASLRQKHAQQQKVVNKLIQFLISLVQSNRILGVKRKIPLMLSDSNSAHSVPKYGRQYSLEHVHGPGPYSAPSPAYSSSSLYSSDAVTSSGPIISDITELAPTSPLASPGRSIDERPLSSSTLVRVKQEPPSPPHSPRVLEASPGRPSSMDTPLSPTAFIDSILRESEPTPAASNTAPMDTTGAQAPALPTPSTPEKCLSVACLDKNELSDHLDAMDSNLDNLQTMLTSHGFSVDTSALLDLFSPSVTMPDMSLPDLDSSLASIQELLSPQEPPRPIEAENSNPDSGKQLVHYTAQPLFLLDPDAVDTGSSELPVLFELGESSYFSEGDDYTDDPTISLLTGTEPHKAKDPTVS

[9] = molecular target: T3, Cytochrome P450 1A2 (Homo sapiens, UniProt P05177);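 also: PubChem cytochrome P450 panel assay, CYP1A2 panel member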
T3 sequence (P05177 whole entry): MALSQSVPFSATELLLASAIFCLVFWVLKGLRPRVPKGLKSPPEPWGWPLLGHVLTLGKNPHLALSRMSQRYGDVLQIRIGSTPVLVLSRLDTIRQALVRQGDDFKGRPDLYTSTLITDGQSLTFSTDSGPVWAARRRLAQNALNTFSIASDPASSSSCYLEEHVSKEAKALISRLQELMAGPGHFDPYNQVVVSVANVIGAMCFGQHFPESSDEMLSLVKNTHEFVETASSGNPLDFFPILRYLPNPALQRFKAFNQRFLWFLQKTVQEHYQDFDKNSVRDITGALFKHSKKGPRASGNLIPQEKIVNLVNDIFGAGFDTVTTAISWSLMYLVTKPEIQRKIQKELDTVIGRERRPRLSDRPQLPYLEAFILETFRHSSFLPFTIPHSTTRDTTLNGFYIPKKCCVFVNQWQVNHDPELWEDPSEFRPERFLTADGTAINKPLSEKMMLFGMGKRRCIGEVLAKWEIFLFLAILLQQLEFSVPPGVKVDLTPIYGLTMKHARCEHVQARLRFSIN

[10] = molecular target: Cytochrome P450 2D6 (Homo sapiens, UniProt P10635);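 also: CYP2D6 member of a cytochrome P450 panel assay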
Cytochrome P450 2D6, sequence (P10635 whole entry): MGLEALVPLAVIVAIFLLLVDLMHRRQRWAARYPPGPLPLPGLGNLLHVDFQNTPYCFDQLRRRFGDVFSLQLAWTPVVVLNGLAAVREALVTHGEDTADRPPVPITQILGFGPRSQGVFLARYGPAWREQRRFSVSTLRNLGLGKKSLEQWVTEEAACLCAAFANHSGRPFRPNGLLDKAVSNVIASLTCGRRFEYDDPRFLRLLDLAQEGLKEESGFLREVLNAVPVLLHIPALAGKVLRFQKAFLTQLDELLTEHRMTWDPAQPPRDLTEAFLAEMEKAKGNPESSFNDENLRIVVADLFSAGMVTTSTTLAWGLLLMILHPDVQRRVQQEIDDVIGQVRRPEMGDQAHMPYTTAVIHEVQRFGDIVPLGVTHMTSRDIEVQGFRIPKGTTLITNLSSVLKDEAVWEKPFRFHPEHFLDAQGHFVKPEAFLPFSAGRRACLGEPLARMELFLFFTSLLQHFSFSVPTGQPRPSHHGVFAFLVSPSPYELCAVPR

Cytochrome P450 2C9, sequence (P11712 whole entry): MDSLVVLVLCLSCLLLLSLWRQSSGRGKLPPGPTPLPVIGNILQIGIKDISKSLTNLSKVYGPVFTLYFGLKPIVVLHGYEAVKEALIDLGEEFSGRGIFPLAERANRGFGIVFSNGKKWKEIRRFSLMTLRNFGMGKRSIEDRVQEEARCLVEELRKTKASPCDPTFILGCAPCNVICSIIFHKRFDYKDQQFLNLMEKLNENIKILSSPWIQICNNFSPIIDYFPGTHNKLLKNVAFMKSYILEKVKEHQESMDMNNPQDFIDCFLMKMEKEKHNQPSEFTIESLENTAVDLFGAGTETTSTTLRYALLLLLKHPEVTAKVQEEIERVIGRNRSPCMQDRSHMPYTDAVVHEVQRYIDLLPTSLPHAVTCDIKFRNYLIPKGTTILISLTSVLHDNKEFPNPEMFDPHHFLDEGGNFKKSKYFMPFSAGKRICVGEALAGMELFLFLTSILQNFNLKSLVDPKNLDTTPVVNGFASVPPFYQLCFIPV
Cytochrome P450 2C19, sequence (P33261 whole entry): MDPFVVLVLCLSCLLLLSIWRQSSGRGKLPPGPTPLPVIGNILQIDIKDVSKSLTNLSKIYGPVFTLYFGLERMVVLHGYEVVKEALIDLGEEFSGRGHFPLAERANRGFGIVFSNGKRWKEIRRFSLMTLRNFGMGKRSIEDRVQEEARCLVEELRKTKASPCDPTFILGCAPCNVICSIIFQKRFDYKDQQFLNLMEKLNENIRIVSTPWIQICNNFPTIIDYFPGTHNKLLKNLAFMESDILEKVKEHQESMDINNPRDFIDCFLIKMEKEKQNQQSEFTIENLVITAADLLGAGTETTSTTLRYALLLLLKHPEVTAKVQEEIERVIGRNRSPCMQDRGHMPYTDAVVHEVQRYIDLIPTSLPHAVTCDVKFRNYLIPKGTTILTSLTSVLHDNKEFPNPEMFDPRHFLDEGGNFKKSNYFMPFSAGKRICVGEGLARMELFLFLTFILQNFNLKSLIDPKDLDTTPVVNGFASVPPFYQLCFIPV

O=c1[nH][nH]c(=S)c(=O)[nH]1
AC50 [1]: 2.51 µM (inconclusive)
AC50 [2]: 2 µM (inconclusive)

C=CCOC(=O)C(C#N)c1nc2ccccc2nc1N1CCN(c2ccccc2OCC)CC1 (centres undefined)
IC50 [3]: > 47.1 µM (inactive)
EC50 [4]: > 53 µM (inactive)

COc1ccc(-c2[nH]ncc2CN2CCC(O)(c3ccc(Cl)cc3)CC2)cc1
EC50 [5]: 18.2 µM (active)
EC50 [6]: 9.96 µM (active)

COc1cccc(-c2cc(C(F)(F)F)nc(-n3cc(Cl)cn3)n2)c1
EC50 [7]: > 120 µM (not active)
EC50 [5]: > 120 µM (not active)
EC50 [6]: > 120 µM (not active)

CCN1C(c2ccccc2)C(C)C(=O)C(C)C1c1ccccc1 (centres undefined)
IC50 [3]: > 47.1 µM (inactive)
EC50 [4]: > 53 µM (inactive)

COc1ccc(NC(=O)CSc2nc(C)cs2)cc1
EC50 [8]: > 195 µM (not active)

CCn1c(C(=O)NC(C)c2ccc3c(c2)OCCO3)cc2sccc21 (centres undefined)
EC50 [7]: 15.8 µM (active)
EC50 [5]: 14.2 µM (active)
EC50 [6]: 22.5 µM (active)

O=C(C1CC(=O)N(c2ccc(Br)cc2)C1)N1CCCC1 (centres undefined)
IC50 [3]: > 47.1 µM (inactive)
EC50 [4]: > 53 µM (inactive)

COc1ccc(-c2nc(CNS(=O)(=O)c3ccc(OC)c(OC)c3)cs2)cc1
EC50 [8]: > 195 µM (not active)

COc1ccc(NC(=O)C2CCN(C(=O)Nc3ccc(C)cc3)CC2)cc1OC
EC50 [7]: > 120 µM (not active)
EC50 [5]: > 120 µM (not active)
EC50 [6]: > 120 µM (not active)

C=C(C)Cn1c(=O)c2c(nc3n2CC(C)CN3Cc2ccccc2)n(C)c1=O (centres undefined)
IC50 [3]: > 47.1 µM (inactive)
EC50 [4]: > 53 µM (inactive)

CCC(=O)Nc1ccc(NC(=O)Cc2ccccc2)cn1
EC50 [8]: > 195 µM (not active)

Cc1ccc2c(COC(=O)C3=COCCO3)cc(=O)oc2c1
EC50 [7]: 10.5 µM (active)
EC50 [6]: 8.1 µM (inconclusive)

O=S(=O)(c1ccc2c(c1)OCCO2)N1CCC(c2nc(O)c3nnn(Cc4ccccc4F)c3n2)CC1
EC50 [7]: > 120 µM (not active)
EC50 [5]: > 120 µM (not active)
EC50 [6]: > 120 µM (not active)

C1=C(c2cccc3ccccc23)N2CCN=C2S1
EC50 [7]: > 120 µM (not active)
EC50 [5]: > 120 µM (not active)
EC50 [6]: > 120 µM (not active)

CCCCc1nc2ccccc2c(NC(=O)CN(CC)CC)c1CCC
IC50 [3]: > 47.1 µM (inactive)
EC50 [4]: > 53 µM (inactive)

Fc1ccccc1CNC(=S)Nc1ccc(Cl)cc1
IC50 [3]: 5.53 µM (active)
EC50 [4]: > 53 µM (inactive)

CCCCCCCCCSc1nnc(N)[nH]1
IC50 [3]: > 47.1 µM (inactive)
EC50 [4]: > 53 µM (inactive)

O=C(N/N=C/c1cccnc1)c1ccc2c(c1)OCCO2
EC50 [8]: > 195 µM (not active)

O=C(OCc1cc(=O)n2ccsc2n1)C1(c2ccccc2)CC1
IC50 [3]: > 47.1 µM (inactive)
EC50 [4]: > 53 µM (inactive)

O=C(N/N=C/c1cc([N+](=O)[O-])ccc1Cl)c1cnccn1
EC50 [7]: 9.8 µM (active)
EC50 [5]: > 120 µM (not active)
EC50 [6]: > 120 µM (not active)

CC1(C)N(O)C(c2ccc(C(=O)O)cc2)=[N+]([O-])C1(C)C
AC50 [9]: 31.6 µM (inconclusive)

CCOC(=O)c1ccc(NC(=O)NS(=O)(=O)c2ccc(C)cc2)cc1
EC50 [8]: > 195 µM (not active)

Nc1nc(OCc2ccccc2)c2[nH]cnc2n1 [6-O-BENZYLGUANINE]
AC50 [1]: 39.8 µM (inconclusive)
AC50 [10]: 0.501 µM (inconclusive)

CC(C)[C@H](CO)Nc1nc(Nc2cccc(Cl)c2)c2ncn(C(C)C)c2n1 [PURVALANOLA]
AC50 [1]: 39.8 µM (inconclusive)
